The test system of the assay is HCV replicon RNA in replicon cells. Kind of assay: Replicon RNA response to antiviral agent(s), real time PCR (Taqman assay). The following applies: Hepatitis C virus, read-out: Inhibitor IC50 in replicon cells. Format: cell-based. The method, then: Replicon RNA response to antiviral agent(s) was examined using the HCV protease inhibitor Formula Ia alone or in combination with HCV NS5B polymerase inhibitors 2′-methyl-adenosine, benzothiadiazine, indole-N-acetamide, or NM 107. Likewise, replicon RNA response to antiviral agent(s) was examined using the HCV protease inhibitor SCH 446211 (SCH 6) alone or in combination with HCV polymerase inhibitor ribavirin.
In brief, replicon cells were seeded at 4000 cells/well in 96-well collagen 1-coated Biocoat plates (Becton Dickinson). At 24 hrs post-seeding, replicon cells were treated with the requisite anti-viral agent(s). The final concentration of DMSO was 0.5%, fetal bovine serum was 5%, and G418 (an aminoglycoside used as a selective agent) was 500 μg/ml. Media and anti-viral agent(s) were refreshed daily for 3 days, at which point the cells were washed with PBS and lysed in 1× cell lysis buffer (Ambion cat #8721). The replicon RNA level was measured using real time PCR (Taqman assay). The ampicon was located in NS5B. […] (SEQ ID NO: 2); the probe sequence was FAM-labeled […] (SEQ ID NO: 3). GAPDH RNA was used as endogenous control and was amplified in the same reaction as NS5B (multiplex PCR) using primers and VIC-labeled probe recommended by the manufacture (PE Applied Biosystem). The real-time RT-PCR reactions were run on ABI PRISM 7900HT Sequence Detection System using the following program: 48° C. for 30 min, 95° C. for 10 min, 40 cycles of 95° C. for 15 sec, 60° C. for 1 min. The ΔCT values (CT5B−CTGAPDH) were plotted against drug concentration and fitted to the sigmoid dose response model using SAS (SAS Institute Inc.) or Graphpad PRISM software (Graphpad Software Inc.). The IC50 is the drug dose necessary to achieve ΔCT=1 over the projected baseline. […] Alternatively, to quantitate the absolute amount replicon RNA, a standard curve was established by including serially diluted T7 transcripts of replicon RNA in the Taqman assay. All Taqman reagents were from PE Applied Biosystem. […]
In general terms: Replicon systems follow genome replication, usually without infectious particles.

Like-named read-outs stand apart in the source and are kept apart here.

In the case of `CC(C)(C)NC(=O)N[C@H](C(=O)N1CC2C([C@H]1C(=O)NC(CC1CCC1)C(=O)C(N)=O)C2(C)C)C(C)(C)C` (stereo partly drawn) [Formula Ia], the IC50 turned out to be 3500 nM (cells selected by: Formula Ia + 2′-methyl-adenosine), 2400 nM (cells selected by: Formula Ia + Indole-N-acetamide) and 300 nM (cells selected by: No treatment).

For orientation: IC50 means the point on the concentration scale where inhibition reaches its midpoint.
